Earlier results as cited in US4196122A, “Analgesic polypeptide” (American Home Products Corporation, priority 1977, dated 1980).

How the values were obtained:
opiate receptor = details: brain homogenates
rats = details: injection in the brain ventricle in rats; fully reversible by naloxone

Substance | inhibition of stereospecific receptor binding of 3H-naloxone (opiate receptor) | analgesia (rats)
H-Tyr-Gly-Gly-Phe-Leu-OH [leucine-enkephalin] | inhibit the stereospecific receptor binding | induce a profound analgesia
H-Tyr-Gly-Gly-Phe-Met-OH [methionine-enkephalin] | inhibit the stereospecific receptor binding | induce a profound analgesia
